In patent US20050137220A1 (Pharmacia Corporation, priority 2003, published 2005) one finds IC50 data, which are given here for 39 compounds.

One assay concerns U937 cells. The assay can be described thus: U937 Cell TNFα Release Assay. Format: cell-based, human. Conditions: mixture of stereoisomers implied unless otherwise noted.
For a further assay, the target named is MK-2 (Homo sapiens, UniProt P49137). The assay can be described thus: Determination of MK-2 IC50 (phosphorylation of HSP-peptide, anion exchange resin capture assay). Format: biochemical. Conditions: additional values are replicate IC50 experiments; mixture of stereoisomers implied unless otherwise noted; read-out: MK-2 Avg. IC50.
The mark [1] stands for this setting: Homo sapiens, U-937, LPS-stimulated differentiated U937 cells, TNFα by ELISA, read-out: TNF Release Assay Avg. IC50.
[2] abbreviates: Homo sapiens, U-937, 4 h, read-out: TNF Release Assay Avg. IC50, LPS-stimulated differentiated U937 cells, TNFα by ELISA.
The mark [3] stands for this setting: Homo sapiens, U-937, read-out: TNF Release Assay Avg. IC50, LPS-stimulated differentiated U937 cells, TNFα by ELISA.

The structures appear in SMILES notation. Counter-ions that a name gives are not always drawn. Like-named read-outs stand apart in the source and are kept apart here.

The IC50 is the concentration that inhibits the measured activity by half.

Chain of MK-2 (P49137 whole entry, species assumed): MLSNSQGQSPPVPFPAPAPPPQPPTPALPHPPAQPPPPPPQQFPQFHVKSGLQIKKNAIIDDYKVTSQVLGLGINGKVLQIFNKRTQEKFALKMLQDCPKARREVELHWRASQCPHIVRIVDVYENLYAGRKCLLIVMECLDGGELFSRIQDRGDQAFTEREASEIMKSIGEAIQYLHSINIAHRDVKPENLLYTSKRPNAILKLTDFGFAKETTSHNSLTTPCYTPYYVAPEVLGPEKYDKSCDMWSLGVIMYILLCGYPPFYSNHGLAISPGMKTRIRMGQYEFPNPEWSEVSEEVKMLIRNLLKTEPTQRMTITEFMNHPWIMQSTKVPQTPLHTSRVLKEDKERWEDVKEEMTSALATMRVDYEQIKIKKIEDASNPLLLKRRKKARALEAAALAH

Regarding `COC(=O)C1c2[nH]c3ccc(OC)cc3c2C2CCN1C2` (stereo not drawn) [Example 58, methyl 7-methoxy-3,4,5,10-tetrahydro-1H-2,5-methanoazepino[3,4-b]indole-1-carboxylate trifluoroacetate], the IC50 with U937 cells (setting [1]) amounted to 16.3 µM.

With `O=C(O)C1NCCc2c1[nH]c1ccc(OCc3ccccc3)cc21` (stereo not drawn) [Example 64, 6-(benzyloxy)-2,3,4,9-tetrahydro-1H-beta-carboline-1-carboxylic acid hydrochloride], the IC50 in the assay on U937 cells (setting [2]) was 85.1 µM.

As for `CCCOC(=O)C1c2[nH]c3ccc(OC)cc3c2C2CCN1C2` (stereo not drawn) [Example 61, propyl 7-methoxy-3,4,5,10-tetrahydro-1H-2,5-methanoazepino[3,4-b]indole-1-carboxylate trifluoroacetate], the IC50 in the assay with U937 cells (read-out: TNF Release Assay Avg. IC50, LPS-stimulated differentiated U937 cells, TNFα by ELISA, trifluoroacetate) came out at 0.879 µM.

Take `COc1ccc2[nH]c3c(c2c1)C1CCN(C1)C3C(=O)OCCF` (stereo not drawn) [Example 26, trifluoroacetate]: the IC50 in the assay on U937 cells (setting [3]) is 2.04 µM.

Consider `CCC1CNC(C(=O)O)c2[nH]c3ccc(OC)cc3c21` (stereo not drawn) [Example 21, 4-ethyl-6-methoxy-2,3,4,9-tetrahydro-1H-beta-carboline-1-carboxylic acid hydrochloride], for which, in the assay with U937 cells (setting [2]), the IC50 was > 100 µM.

As for `COc1ccc2[nH]c3c(c2c1)C1CCN(C1)C3C(=O)OCCSC` (stereo not drawn) [Example 32, hydrochloride], the IC50 in the assay on U937 cells (setting [3]) came to 29.9 µM.

Consider `COc1ccc2[nH]c3c(c2c1)C(Cc1ccccc1)CNC3C(=O)O` (stereo not drawn) [Example 71, 4-benzyl-6-methoxy-2,3,4,9-tetrahydro-1H-beta-carboline-1-carboxylic acid], for which the IC50 in the assay on U937 cells (setting [2]) worked out at 54 µM.

Regarding `COc1ccc2[nH]c3c(c2c1)C1CCN(C1)C3C(=O)OC1CCCCC1` (stereo not drawn) [Example 105, hydrochloride], the IC50 in the assay with U937 cells (setting [3]) was > 100 µM.

With `COc1cccc2[nH]c3c(c12)CCNC3C(=O)O` (stereo not drawn) [Example 103, 5-methoxy-2,3,4,9-tetrahydro-1H-beta-carboline-1-carboxylic acid hydrochloride], the IC50 in the assay with U937 cells (setting [2]) turned out to be 92.6 µM.

For `COC(=O)C1NCCc2c1[nH]c1ccc(OC)cc21` (stereo not drawn) [Example 106, methyl 6-methoxy-2,3,4,9-tetrahydro-1H-beta-carboline-1-carboxylate hydrochloride], in the assay with U937 cells (setting [2]), the IC50 worked out at 26.1 µM.

On to `COC(=O)C1c2[nH]c3ccc(OCc4ccccc4)cc3c2C2CCN1C2` (stereo not drawn) [Example 91, methyl 7-(benzyloxy)-3,4,5,10-tetrahydro-1H-2,5-methanoazepino[3,4-b]indole-1-carboxylate compound with trifluoroacetic acid (1:1)], for which the IC50 with U937 cells (setting [3]) came to 24 µM.

Consider `COc1ccc2[nH]c3c(c2c1)CC(CO)NC3=O` (stereo not drawn) [Example 37, 3-(hydroxymethyl)-6-methoxy-2,3,4,9-tetrahydro-1H-beta-carbolin-1-one], for which the IC50 in the assay on U937 cells (setting [1]) is > 100 µM.

As to `COc1ccc2[nH]c3c(c2c1)C1CCN(C1)C3C(=O)NCc1ccccc1` (stereo not drawn) [Example 243, N-benzyl-7-methoxy-3,4,5,10-tetrahydro-1H-2,5-methanoazepino[3,4-b]indole-1-carboxamide hydrochloride], in the assay on U937 cells (setting [3]), the IC50 is > 100 µM.

Turning to `O=C(O)C1c2[nH]c3ccc(O)cc3c2C2CCN1C2` (stereo not drawn) [Example 2, 7-hydroxy-3,4,5,10-tetrahydro-1H-2,5-methanoazepino[3,4-b]indole-1-carboxylic acid hydrochloride], the IC50 in the assay with U937 cells (Homo sapiens, U-937, 4 h, LPS-stimulated differentiated U937 cells, TNFα by ELISA, read-out: TNF Release Assay Avg. IC50) worked out at 42.6 µM.

As to `COc1ccc2[nH]c3c(c2c1)C1CCN(C1)C3C(=O)OCC1CCCCC1` (stereo not drawn) [Example 99, cyclohexylmethyl 7-methoxy-3,4,5,10-tetrahydro-1H-2,5-methanoazepino[3,4-b]indinole-1-carboxylate hydrochloride], the IC50 in the assay on U937 cells (setting [3]) worked out at 9.83 µM.

Regarding `O=C(O)C1c2c(c3ccccc3n2Cc2ccccc2)CCN1Cc1cccc(C(F)(F)F)c1` (stereo not drawn) [Example 112, 1H-Pyrido[3,4-b]indole-1-carboxylic acid, 2,3,4,9-tetrahydro-9-(phenylmethyl)-2-[[3-(trifluoromethyl)phenyl]methyl]- or 9-benzyl-2-[3-(trifluoromethyl)benzyl]-2,3,4,9-tetrahydro-1H-beta-carboline-1-carboxylic acid], the IC50 at MK-2 was determined as 53.7 µM.

As for `O=C1NCCc2c1[nH]c1cccc(C(=O)O)c21` [Example 250, 1-oxo-2,3,4,9-tetrahydro-1H-beta-carboline-5-carboxylic acid], the IC50 on MK-2 was > 200 µM.

Consider `CCOC(=O)c1ccc(COc2ccc3[nH]c4c(c3c2)CCNC4C(=O)O)o1` (stereo not drawn) [Example 133, 6-{[5-(ethoxycarbonyl)-2-furyl]methoxy}-2,3,4,9-tetrahydro-1H-beta-carboline-1-carboxylic acid], for which, at MK-2, the IC50 is 105 µM.

As for `COC(=O)C1c2[nH]c3ccc(OC)cc3c2CCN1C(C)C` (stereo not drawn) [Example 199, methyl 2-isopropyl-6-methoxy-2,3,4,9-tetrahydro-1H-beta-carboline-1-carboxylate], on MK-2, the IC50 was > 200 µM.

On to `CCOC(=O)C1c2[nH]c3ccccc3c2CCN1C(=O)c1ccc(OC)o1` (stereo not drawn) [Example 211, 1h-Pyrido[3,4-B]Indole-1-Carboxylic Acid, 2,3,4,9-Tetrahydro-2-[(5-Methoxy-2-Furanyl)Carbonyl]-,Ethyl Ester], for which the IC50 at MK-2 was > 200 µM.

Consider `O/N=C1\CCCc2c1[nH]c1ccccc21` [Example 109, 2,3,4,9-tetrahydro-1H-carbazol-1-one oxime], for which the IC50 on MK-2 was 49.9 µM.

Regarding `COc1ccc2[nH]c3c(c2c1)CCN(Cc1ccc(C(F)(F)F)cc1)C3C(=O)O` (stereo not drawn) [Example 141, 6-methoxy-2-[4-(trifluoromethyl)benzyl]-2,3,4,9-tetrahydro-1H-beta-carboline-1-carboxylic acid], at MK-2, the IC50 came to 119 µM.

For `COCCOc1ccc2[nH]c3c(c2c1)CCNC3C(=O)O` (stereo not drawn) [Example 135, 6-(2-methoxyethoxy)-2,3,4,9-tetrahydro-1H-beta-carboline-1-carboxylic acid], on MK-2, the IC50 is 110 µM.

On to `COc1ccc2[nH]c3c(c2c1)CCNC3CN` (stereo not drawn) [Example 230, 1-(6-methoxy-2,3,4,9-tetrahydro-1H-beta-carbolin-1-yl)methanamine trifluoroacetate hydrate], for which the IC50 on MK-2 is > 200 µM.

Take `COc1ccc2[nH]c3c(c2c1)CCN1C3C(=O)NC1(C)C` (stereo not drawn) [Example 180, 8-methoxy-3,3-dimethyl-2,3,5,6,11,11b-hexahydro-1H-imidazo[1′,5′:1,2]pyrido[3,4-b]indol-1-one]: on MK-2, the IC50 was > 200 µM.

Turning to `O=C(O)C1NCCc2c1[nH]c1ccc(OCc3cccnc3)cc21` (stereo not drawn) [Example 102, 6-(pyridin-3-ylmethoxy)-2,3,4,9-tetrahydro-1H-beta-carboline-1-carboxylic acid hydrochloride], the IC50 on MK-2 amounted to 42.6 µM.

`O=C1NCCc2c1[nH]c1ccc(O)cc21` [Example 108, 6-hydroxy-2,3,4,9-tetrahydro-1H-beta-carbolin-1-one]: at MK-2, the IC50 was 48.9 µM.

As to `COc1ccc2[nH]c3c(c2c1)C1(CCCCC1)CNC3C(=O)O` (stereo not drawn) [Example 186, 2′,3′,4′,9′-tetrahydro-6′-methoxy-spiro[cyclohexane-1,4′-[4H]pyrido[3,4-b]indole]-1-carboxylic acid], the IC50 on MK-2 was > 200 µM.

For `COc1ccc2[nH]c3c(c2c1)CCNC3(CC(=O)O)C(=O)O` (stereo not drawn) [Example 226, 1-(carboxymethyl)-6-methoxy-2,3,4,9-tetrahydro-1H-beta-carboline-1-carboxylic acid], the IC50 at MK-2 is > 200 µM.

For `Cc1ccc2[nH]c3c(c2c1)CCNC3=O` [Example 254, 1h-Pyrido[3,4-B]Indol-1-One,2,3,4,9-Tetrahydro-6-Methyl-], the IC50 on MK-2 was > 200 µM.

On to `COc1ccc2[nH]c3c(c2c1)CCNC3C(N)=O` (stereo not drawn) [Example 220, 6-methoxy-2,3,4,9-tetrahydro-1H-beta-carboline-1-carboxamide], for which the IC50 at MK-2 is > 200 µM.

In the case of `COc1ccc2[nH]c3c(c2c1)CCNC3Cc1nnn[nH]1` (stereo not drawn) [Example 166, 6-methoxy-1-(1H-tetraazol-5-ylmethyl)-2,3,49-tetrahydro-1H-beta-carboline hydrochloride hydrate], the IC50 at MK-2 is > 200 µM.

On to `COc1ccc2c(c1)c1c(n2C)C(C(=O)O)NCC1` (stereo not drawn) [Example 182, 6-methoxy-9-methyl-2,3,4,9-tetrahydro-1H-beta-carboline-1-carboxylic acid], for which the IC50 on MK-2 is > 200 µM.

For the compound `COC(=O)C1c2[nH]c3ccc(OC)cc3c2CCN1C(=O)OC(C)(C)C` (stereo not drawn) [Example 234, 2-tert-butyl 1-methyl 6-methoxy-1,3,4,9-tetrahydro-2H-beta-carboline-1,2-dicarboxylate], the IC50 on MK-2 was > 200 µM.

For the compound `COc1ccc(Oc2ccc3[nH]c4c(c3c2)CCC/C4=N\O)cc1` [Example 144, 6-(4-methoxyphenoxy)-2,3,4,9-tetrahydro-1H-carbazol-1-one oxime], on MK-2, the IC50 worked out at 130 µM.

Regarding `CCOC(=O)c1ccc2c3c([nH]c2c1)CCNC3=O` [Example 110, ethyl 1-oxo-2,3,4,5-tetrahydro-1H-pyrido[4,3-b]indole-7-carboxylate], the IC50 on MK-2 worked out at 50.1 µM.

For `O=C(O)C1NCCc2c1[nH]c1ccc(OCCCc3ccccc3)cc21` (stereo not drawn) [Example 139, 6-(3-phenylpropoxy)-2,3,49-tetrahydro-1H-beta-carboline-1-carboxylic acid], at MK-2, the IC50 is 117 µM.

In the case of `COc1ccc2[nH]c3c(c2c1)C(Cc1ccc(OC(F)(F)F)cc1)CNC3C(=O)O` (stereo not drawn) [Example 185, 6-methoxy-4-[4-(trifluoromethoxy)benzyl]-2,3,4,9-tetrahydro-1H-beta-carboline-1-carboxylic acid], the IC50 at MK-2 is > 200 µM.

Consider `COc1ccc2[nH]c3c(c2c1)CCN1C(=O)NC(=O)C31` (stereo not drawn) [Example 158, 8-methoxy-5,6,11,11b-tetrahydro-1H-imidazo[1′,5′:1,2]pyrido[3,4-b]indole-1,3(2H)-dione], for which the IC50 at MK-2 was 175 µM.
